pIC50: −log10 of the molar value. Starred links: 1 amine or outer side, 2 acyl side, 3 side chain; linkers in the order of their positions; H or OH if unused. Positions of bridges follow the written chain, without caps; N, C: chain ends. Non-standard residues stand in square brackets, D forms with d. Residues, ends and D or L forms follow the SMILES beside them. Groups on a side chain read outwards from the residue. ξ: configuration not given here. *: point of attachment. Trp(βS-Me) = C[C@@H](c1c[nH]c2ccccc12)[C@H](N)C(=O)O; Phe(4-guanidino) = N=C(N)Nc1ccc(C[C@H](N)C(=O)O)cc1; Ala(imidazol-2-yl) = N[C@@H](Cc1ncc[nH]1)C(=O)O; Arg(NO2) = N=C(NCCC[C@H](N)C(=O)O)N[N+](=O)[O-]; Phe(4-COOH) = N[C@@H](Cc1ccc(C(=O)O)cc1)C(=O)O; Trp(5-F) = N[C@@H](Cc1c[nH]c2ccc(F)cc12)C(=O)O; Phe(4-CH2NH2) = NCc1ccc(C[C@H](N)C(=O)O)cc1; X4 = O=C(CCSCc1cccc(CSCCN[*:1])c1)[*:2]; γGlu = O=C(O)[C@H](CCC(=O)[*:2])N[*:1]; mXylylene = c1cc(C[*:1])cc(C[*:2])c1; AEF = NCCOc1ccc(C[C@H](N)C(=O)O)cc1; X48 = CC(N[*:1])c1ncc(C(=O)[*:2])s1; Adipoyl = O=C(CCCCC(=O)[*:2])[*:1]; Palmitoyl = CCCCCCCCCCCCCCCC(=O)*; X6 = O=C(Cc1ccc(CN[*:2])cc1)[*:1]; ξAla(CF3) = NC(CC(F)(F)F)C(=O)O; Aad = N[C@@H](CCCC(=O)O)C(=O)O; Aoc(2) = CCCCCC[C@H](N)C(=O)O; Suc = O=C(CCC(=O)[*:2])[*:1]; αMeP = C[C@@]1(C(=O)O)CCCN1; Dab = NCC[C@H](N)C(=O)O; Dap = NC[C@H](N)C(=O)O; AEEA = NCCOCCOCC(=O)O; GABA = NCCCC(=O)O; Mpa = O=C(O)CCS
target: PCSK9 (Homo sapiens (Human), UniProt Q8NBP7); assay: PCSK9 Alexa FRET Standard assay (displacement of AlexaFluor647 tagged cyclic peptide Reagent A); assay type: binding; settings: IC50
Sequence (Q8NBP7 153-692): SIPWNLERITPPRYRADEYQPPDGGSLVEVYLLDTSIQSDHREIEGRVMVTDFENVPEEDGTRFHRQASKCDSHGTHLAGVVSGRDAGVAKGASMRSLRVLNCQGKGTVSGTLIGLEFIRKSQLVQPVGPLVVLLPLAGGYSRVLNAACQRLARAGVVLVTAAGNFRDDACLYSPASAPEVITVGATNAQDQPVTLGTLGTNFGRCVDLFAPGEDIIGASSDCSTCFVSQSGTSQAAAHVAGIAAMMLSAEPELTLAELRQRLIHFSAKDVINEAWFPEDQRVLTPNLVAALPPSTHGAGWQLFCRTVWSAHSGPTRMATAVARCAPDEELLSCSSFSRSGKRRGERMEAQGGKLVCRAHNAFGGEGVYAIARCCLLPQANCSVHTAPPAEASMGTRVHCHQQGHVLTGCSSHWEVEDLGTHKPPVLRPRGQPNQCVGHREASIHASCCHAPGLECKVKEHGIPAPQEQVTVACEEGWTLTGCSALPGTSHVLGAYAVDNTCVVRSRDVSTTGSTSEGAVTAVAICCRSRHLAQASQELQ
Summary of the method: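 TR-FRET displacement: 0.5 nM biotinylated PCSK9 with 1.25 nM Strep-Eu and 20 nM AlexaFluor-tagged cyclic peptide (final) in 50 mM HEPES pH 7.4, 0.15 M NaCl, 5 mM CaCl2, 0.01% BSA, 0.01% P20, ≥2 h at room temperature. IC50 from sigmoidal fit, converted to Ki via peptide KD; falling Eu counts flagged false positives.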

Structure (SMILES)	pIC50
COc1ccc(C[C@@H]2NC(=O)[C@H](Cc3ncc[nH]3)NC(=O)[C@H](CC(=O)O)NC(=O)[C@H](Cc3c[nH]c4ccc(F)cc34)NC(=O)[C@H](Cc3c[nH]c4ccc(F)cc34)NC(=O)[C@@H](C)NC(=O)[C@H](CCC/N=C(\N)N[N+](=O)[O-])NC(=O)CCSCc3cccc(c3)CSCCNC(=O)[C@]3(C)CCCN3C2=O)cc1 [Compound 445] (cyclo([Arg(NO2)][dA][Trp(5-F)][Trp(5-F)]D[Ala(imidazol-2-yl)]Y(Me)[αMeP][X4]))	4.30 to 4.68

same assay, conditions: PCSK9 Alexa FRET Standard assay, 0.5 nM PCSK9, 20 nM AF cyclic peptide Reagent A; read-out: IC50

pIC50	Structure (SMILES)
4.92 to 6.00	C[C@@H](c1c[nH]c2ccccc12)[C@@H]1NC(=O)CNC(=O)[C@H](CCCCN)NC(=O)CCSCc2cccc(c2)CSC[C@@H](C(N)=O)NC(=O)[C@]2(C)CCCN2C(=O)[C@H](Cc2ccc(O)cc2)NC(=O)[C@H](Cc2cnc[nH]2)NC(=O)[C@H](CC(=O)O)NC(=O)[C@H](Cc2c[nH]c3ccc(F)cc23)NC1=O [Compound 430] ([Mpa]KG[Trp(βS-Me)][Trp(5-F)]DHY[αMeP]C-NH2; linker 1-10 via mXylylene)
4.30 to 4.68	CC1NC(=O)CCSCc2cccc(c2)CSC[C@@H](C(N)=O)NC(=O)[C@]2(C)CCCN2C(=O)[C@H](Cc2ccc(O)cc2)NC(=O)[C@H](Cc2cnc[nH]2)NC(=O)[C@H](CC(=O)O)NC(=O)[C@H](Cc2c[nH]c3ccc(F)cc23)NC(=O)[C@H](Cc2c[nH]c3ccc(F)cc23)NC(=O)C2=CN=C1S2 (stereo partly drawn) [Compound 434] ([Mpa][X48][Trp(5-F)][Trp(5-F)]DHY[αMeP]C-NH2; linker 1-9 via mXylylene)
4.30 to 4.68	CCCCCCCCCCCCCCCC(=O)N[C@@H](CCC(=O)NCCOCCOCC(=O)NCCOCCOCC(=O)NCC[C@H](NC(=O)CNC(=O)CNC(=O)[C@@H]1CSCc2cccc(c2)CSCCC(=O)N[C@@H](CCCCN)C(=O)N[C@H](C)C(=O)N[C@@H](Cc2c[nH]c3ccc(F)cc23)C(=O)N[C@@H](Cc2c[nH]c3ccc(F)cc23)C(=O)N[C@@H](CC(=O)O)C(=O)N[C@@H](Cc2cnc[nH]2)C(=O)N[C@@H](Cc2ccc(O)cc2)C(=O)N2CCC[C@@]2(C)C(=O)N1)C(N)=O)C(=O)O [Compound 439] ([Mpa]K[dA][Trp(5-F)][Trp(5-F)]DHY[αMeP]CGG[Dab]([AEEA-AEEA-γGlu-Palmitoyl])-NH2; linker 1-10 via mXylylene)
7.00 to 9.96	CCCCCC[C@@H]1NC(=O)CCSCc2cccc(c2)CSCCNC(=O)[C@]2(C)CCCN2C(=O)[C@H](Cc2ccc(OC)cc2)NC(=O)[C@H](Cc2ncc[nH]2)NC(=O)[C@H](CC(=O)O)NC(=O)[C@H](Cc2c[nH]c3ccc(F)cc23)NC(=O)[C@H](Cc2c[nH]c3ccc(F)cc23)NC(=O)[C@@H](C)NC1=O [Compound 442] (cyclo([Aoc(2)][dA][Trp(5-F)][Trp(5-F)]D[Ala(imidazol-2-yl)]Y(Me)[αMeP][X4]))
4.92 to 6.00	COc1ccc(C[C@@H]2NC(=O)[C@H](Cc3ncc[nH]3)NC(=O)[C@H](CC(=O)O)NC(=O)[C@H](Cc3c[nH]c4ccc(F)cc34)NC(=O)[C@H](Cc3c[nH]c4ccc(F)cc34)NC(=O)[C@@H](C)NC(=O)[C@H](CCC(N)=O)NC(=O)CCSCc3cccc(c3)CSCCNC(=O)[C@]3(C)CCCN3C2=O)cc1 [Compound 446] (cyclo(D[Ala(imidazol-2-yl)]Y(Me)[αMeP][X4]Q[dA][Trp(5-F)][Trp(5-F)]))
6.00 to 7.00	COc1ccc(C[C@@H]2NC(=O)[C@H](Cc3ncc[nH]3)NC(=O)[C@H](CC(=O)O)NC(=O)[C@H](Cc3c[nH]c4ccc(F)cc34)NC(=O)[C@H](Cc3c[nH]c4ccc(F)cc34)NC(=O)[C@@H](C)NC(=O)[C@H](CNC(=O)COCCOCCN)NC(=O)CCSCc3cccc(c3)CSCCNC(=O)[C@]3(C)CCCN3C2=O)cc1 [Compound 447] (cyclo(D[Ala(imidazol-2-yl)]Y(Me)[αMeP][X4][Dap](AEEA)[dA][Trp(5-F)][Trp(5-F)]))

Continued, compound first:

Structure (SMILES)	pIC50
CC(=O)N[C@H]1CCCC/C=C/CO[C@H]2C[C@@H](C(N)=O)N(C2)C(=O)[C@H](Cc2ccc(O)cc2)NC(=O)[C@H](Cc2cnc[nH]2)NC(=O)[C@H](CC(=O)O)NC(=O)[C@H](Cc2c[nH]c3ccc(F)cc23)NC(=O)[C@H](Cc2c[nH]c3ccc(F)cc23)NC(=O)CNC(=O)[C@H](CCCCN)NC1=O [Compound 431]	7.00 to 9.96
COc1ccc(C[C@@H]2NC(=O)[C@H](Cc3cnc[nH]3)NC(=O)[C@H](CC(=O)O)NC(=O)[C@H](Cc3c[nH]c4ccc(F)cc34)NC(=O)[C@H](Cc3c[nH]c4ccc(F)cc34)NC(=O)[C@@H](C)NC(=O)CCCNC(=O)c3ccc(cc3)C[C@@H](C(N)=O)NC(=O)[C@]3(C)CCCN3C2=O)cc1 [Compound 432] ([GABA][dA][Trp(5-F)][Trp(5-F)]DHY(Me)[αMeP][Phe(4-COOH)]-NH2; lactam N-9)	4.92 to 6.00
COc1ccc(C[C@@H]2NC(=O)[C@H](Cc3cnc[nH]3)NC(=O)[C@H](CC(=O)O)NC(=O)[C@H](Cc3c[nH]c4ccc(F)cc34)NC(=O)[C@H](Cc3c[nH]c4ccc(F)cc34)NC(=O)[C@@H](C)NC(=O)[C@H](NC(C)=O)CCCCNC(=O)Cc3ccc(cc3)CNC(=O)CCC[C@@H](C(N)=O)NC(=O)[C@]3(C)CCCN3C2=O)cc1 [Compound 433] (Ac-[dK][dA][Trp(5-F)][Trp(5-F)]DHY(Me)[αMeP][Aad]-NH2; linker 1-9 via X6)	6.00 to 7.00
COc1ccc(C[C@@H]2NC(=O)[C@H](Cc3cnc[nH]3)NC(=O)[C@H](CC(=O)O)NC(=O)[C@H](Cc3c[nH]c4ccc(F)cc34)NC(=O)[C@H](Cc3c[nH]c4ccc(F)cc34)NC(=O)[C@@H](C)NC(=O)CCC(=O)NCCOc3ccc(cc3)C[C@@H](C(N)=O)NC(=O)[C@]3(C)CCCN3C2=O)cc1 [Compound 436] ([dA][Trp(5-F)][Trp(5-F)]DHY(Me)[αMeP][AEF]-NH2; linker N-8 via Suc)	4.30 to 4.68
NC(=O)[C@@H]1Cc2ccc(cc2)CNC(=O)CCCCC(=O)NCC(=O)N[C@@H](Cc2c[nH]c3ccc(F)cc23)C(=O)N[C@@H](Cc2c[nH]c3ccc(F)cc23)C(=O)N[C@@H](CC(=O)O)C(=O)N[C@@H](Cc2cnc[nH]2)C(=O)N[C@@H](Cc2ccc(O)cc2)C(=O)N1 [Compound 438] (G[Trp(5-F)][Trp(5-F)]DHY[Phe(4-CH2NH2)]-NH2; linker N-7 via Adipoyl)	4.30 to 4.68
COc1ccc(C[C@@H]2NC(=O)[C@H](Cc3ncc[nH]3)NC(=O)[C@H](CC(=O)O)NC(=O)[C@H](Cc3c[nH]c4ccc(F)cc34)NC(=O)[C@H](Cc3c[nH]c4ccc(F)cc34)NC(=O)[C@@H](C)NC(=O)[C@H](Cc3ccc(N=C(N)N)cc3)NC(=O)CCSCc3cccc(c3)CSCCNC(=O)[C@]3(C)CCCN3C2=O)cc1 [Compound 441] (cyclo(D[Ala(imidazol-2-yl)]Y(Me)[αMeP][X4][Phe(4-guanidino)][dA][Trp(5-F)][Trp(5-F)]))	4.30 to 4.68
COc1ccc(C[C@@H]2NC(=O)[C@H](Cc3ncc[nH]3)NC(=O)[C@H](CC(=O)O)NC(=O)[C@H](Cc3c[nH]c4ccc(F)cc34)NC(=O)[C@H](Cc3c[nH]c4ccc(F)cc34)NC(=O)[C@@H](C)NC(=O)C(CC(F)(F)F)NC(=O)CCSCc3cccc(c3)CSCCNC(=O)[C@]3(C)CCCN3C2=O)cc1 (stereo partly drawn) [Compound 443] (cyclo(D[Ala(imidazol-2-yl)]Y(Me)[αMeP][X4][ξAla(CF3)][dA][Trp(5-F)][Trp(5-F)]))	4.30 to 4.68
COc1ccc(C[C@@H]2NC(=O)[C@H](Cc3ncc[nH]3)NC(=O)[C@H](CC(=O)O)NC(=O)[C@H](Cc3c[nH]c4ccc(F)cc34)NC(=O)[C@H](Cc3c[nH]c4ccc(F)cc34)NC(=O)[C@@H](C)NC(=O)C(CC(F)(F)F)NC(=O)CCSCc3cccc(c3)CSCCNC(=O)[C@]3(C)CCCN3C2=O)cc1 (stereo partly drawn) [Compound 444] (cyclo(D[Ala(imidazol-2-yl)]Y(Me)[αMeP][X4][ξAla(CF3)][dA][Trp(5-F)][Trp(5-F)]))	4.30 to 4.68

— patent publication US11530244B2, “Cyclic polypeptides for PCSK9 inhibition” (priority 2018, dated 2022)
